Experimental data taken from PubChem BioAssay AID1259407 (Chemical Carcinogenesis Research Information System (CCRIS), 2018).
Activity calls are given as the source filed them. The rule behind the calls is not given here.

System: CCRIS mutagenicity, Ames/micronucleus/aberration tests
Experiment: CCRIS mutagenicity studies
[1] = Test System: AMES SALMONELLA TYPHIMURIUM, Strain/Indicator: TA98, Metabolic Activation: NONE, Method: STANDARD PLATE
[2] = Test System: AMES SALMONELLA TYPHIMURIUM, Strain/Indicator: TA98, Metabolic Activation: RAT, LIVER, S-9, AROCLOR 1254, Method: STANDARD PLATE
[3] = Test System: AMES SALMONELLA TYPHIMURIUM, Strain/Indicator: TA100, Metabolic Activation: NONE, Method: STANDARD PLATE
[4] = Test System: AMES SALMONELLA TYPHIMURIUM, Strain/Indicator: TA100, Metabolic Activation: RAT, LIVER, S-9, AROCLOR 1254, Method: STANDARD PLATE
[5] = Test System: AMES SALMONELLA TYPHIMURIUM, Strain/Indicator: TA1535, Metabolic Activation: NONE, Method: STANDARD PLATE
[6] = Test System: AMES SALMONELLA TYPHIMURIUM, Strain/Indicator: TA1535, Metabolic Activation: RAT, LIVER, S-9, AROCLOR 1254, Method: STANDARD PLATE
[7] = Test System: AMES SALMONELLA TYPHIMURIUM, Strain/Indicator: TA1537, Metabolic Activation: NONE, Method: STANDARD PLATE
[8] = Test System: AMES SALMONELLA TYPHIMURIUM, Strain/Indicator: TA1538, Metabolic Activation: NONE, Method: STANDARD PLATE
[9] = Test System: MOUSE LYMPHOMA, Strain/Indicator: L5178Y (TK+/TK-), Metabolic Activation: NONE, Method: SUSPENSION/PLATE

`CCOCC(=O)O` was tested. Which mutagenic call (Test System: AMES SALMONELLA TYPHIMURIUM, Strain/Indicator: TA97A, Metabolic Activation: NONE, Method: STANDARD PLATE) did it give?
The mutagenic call was “inactive; negative”.

What about the mutagenic call (Test System: AMES SALMONELLA TYPHIMURIUM, Strain/Indicator: TA97A, Metabolic Activation: RAT, LIVER, S-9, AROCLOR 1254, Method: STANDARD PLATE) of the same molecule?
The mutagenic call was “inactive; negative”.

What about the mutagenic call [1] of the same molecule?
Its mutagenic call is “inactive; negative”.

What about the mutagenic call [2] of the same molecule?
Its mutagenic call is “inactive; negative”.

What about the mutagenic call [3] of the same molecule?
The mutagenic call was “inactive; negative”.

And the mutagenic call [4]?
Its mutagenic call is “inactive; negative”.

What about the mutagenic call (Test System: AMES SALMONELLA TYPHIMURIUM, Strain/Indicator: TA102, Metabolic Activation: NONE, Method: STANDARD PLATE) of the same molecule?
Its mutagenic call is “inactive; negative”.

And the mutagenic call (Test System: AMES SALMONELLA TYPHIMURIUM, Strain/Indicator: TA102, Metabolic Activation: RAT, LIVER, S-9, AROCLOR 1254, Method: STANDARD PLATE)?
Its mutagenic call is “inactive; negative”.

Which results are given for `COP(=O)(OC)O/C(=C\Cl)c1cc(Cl)c(Cl)cc1Cl`?
mutagenic call (Test System: AMES SALMONELLA TYPHIMURIUM, Strain/Indicator: TA98, Metabolic Activation: NONE): inactive; negative; mutagenic call (Test System: AMES SALMONELLA TYPHIMURIUM, Strain/Indicator: TA98, Metabolic Activation: RAT, LIVER, S-9, AROCLOR 1254): inactive; negative; mutagenic call (Test System: AMES SALMONELLA TYPHIMURIUM, Strain/Indicator: TA100, Metabolic Activation: NONE): inactive; negative; mutagenic call (Test System: AMES SALMONELLA TYPHIMURIUM, Strain/Indicator: TA100, Metabolic Activation: RAT, LIVER, S-9, AROCLOR 1254): inactive; negative; mutagenic call (Test System: AMES SALMONELLA TYPHIMURIUM, Strain/Indicator: TA102, Metabolic Activation: NONE): inactive; negative; mutagenic call (Test System: AMES SALMONELLA TYPHIMURIUM, Strain/Indicator: TA102, Metabolic Activation: RAT, LIVER, S-9, AROCLOR 1254): inactive; negative; mutagenic call (Test System: AMES SALMONELLA TYPHIMURIUM, Strain/Indicator: TA1535, Metabolic Activation: NONE): inactive; negative; mutagenic call (Test System: AMES SALMONELLA TYPHIMURIUM, Strain/Indicator: TA1535, Metabolic Activation: RAT, LIVER, S-9, AROCLOR 1254): inactive; negative; mutagenic call (Test System: AMES SALMONELLA TYPHIMURIUM, Strain/Indicator: TA1537, Metabolic Activation: NONE): inactive; negative; mutagenic call (Test System: AMES SALMONELLA TYPHIMURIUM, Strain/Indicator: TA1537, Metabolic Activation: RAT, LIVER, S-9, AROCLOR 1254): inactive; negative

With `N#CC1=C(C#N)SCCS1` as the molecule, how does the mutagenic call [1] read?
The mutagenic call was “inactive; negative”.

And the mutagenic call [2]?
Its mutagenic call is “inactive; negative”.

What about the mutagenic call [3] of the same molecule?
Its mutagenic call is “inactive; negative”.

And the mutagenic call [4]?
The mutagenic call was “inactive; negative”.

And the mutagenic call [5]?
The mutagenic call was “inactive; negative”.

And the mutagenic call [6]?
The mutagenic call was “inactive; negative”.

What about the mutagenic call [7] of the same molecule?
The mutagenic call was “inactive; negative”.

What about the mutagenic call (Test System: AMES SALMONELLA TYPHIMURIUM, Strain/Indicator: TA1537, Metabolic Activation: RAT, LIVER, S-9, AROCLOR 1254, Method: STANDARD PLATE) of the same molecule?
Its mutagenic call is “inactive; negative”.

And the mutagenic call [8]?
The mutagenic call was “inactive; negative”.

What about the mutagenic call (Test System: AMES SALMONELLA TYPHIMURIUM, Strain/Indicator: TA1538, Metabolic Activation: RAT, LIVER, S-9, AROCLOR 1254, Method: STANDARD PLATE) of the same molecule?
Its mutagenic call is “inactive; negative”.

With `CCC1CCC(CCC(=O)[O-])C1.CCC1CCC(CCC(=O)[O-])C1.[Co+2]` (stereo not drawn) as the molecule, how does the mutagenic call (Test System: AMES SALMONELLA TYPHIMURIUM, Strain/Indicator: TA98, Metabolic Activation: HAMSTER, LIVER, S-9, AROCLOR 1254 (10%), Method: STANDARD PLATE) read?
Its mutagenic call is “inactive; negative”.

And the mutagenic call [1]?
Its mutagenic call is “inactive; negative”.

What about the mutagenic call (Test System: AMES SALMONELLA TYPHIMURIUM, Strain/Indicator: TA98, Metabolic Activation: RAT, LIVER, S-9, AROCLOR 1254 (10%), Method: STANDARD PLATE) of the same molecule?
Its mutagenic call is “active; positive”.

And the mutagenic call (Test System: AMES SALMONELLA TYPHIMURIUM, Strain/Indicator: TA100, Metabolic Activation: HAMSTER, LIVER, S-9, AROCLOR 1254 (10%), Method: STANDARD PLATE)?
Its mutagenic call is “inactive; negative”.

And the mutagenic call [3]?
The mutagenic call was “inactive; negative”.

What about the mutagenic call (Test System: AMES SALMONELLA TYPHIMURIUM, Strain/Indicator: TA100, Metabolic Activation: RAT, LIVER, S-9, AROCLOR 1254 (10%), Method: STANDARD PLATE) of the same molecule?
Its mutagenic call is “inactive; negative”.

And the mutagenic call (Test System: AMES SALMONELLA TYPHIMURIUM, Strain/Indicator: TA1537, Metabolic Activation: HAMSTER, LIVER, S-9, AROCLOR 1254 (10%), Method: STANDARD PLATE)?
The mutagenic call was “inactive; negative”.

What about the mutagenic call [7] of the same molecule?
Its mutagenic call is “inactive; negative”.

What about the mutagenic call (Test System: AMES SALMONELLA TYPHIMURIUM, Strain/Indicator: TA1537, Metabolic Activation: RAT, LIVER, S-9, AROCLOR 1254 (10%), Method: STANDARD PLATE) of the same molecule?
Its mutagenic call is “inactive; negative”.

What about the mutagenic call (Test System: AMES SALMONELLA TYPHIMURIUM, Strain/Indicator: TA1538, Metabolic Activation: HAMSTER, LIVER, S-9, AROCLOR 1254 (10%), Method: STANDARD PLATE) of the same molecule?
Its mutagenic call is “inactive; negative”.

What about the mutagenic call [8] of the same molecule?
The mutagenic call was “inactive; negative”.

What about the mutagenic call (Test System: AMES SALMONELLA TYPHIMURIUM, Strain/Indicator: TA1538, Metabolic Activation: RAT, LIVER, S-9, AROCLOR 1254 (10%), Method: STANDARD PLATE) of the same molecule?
The mutagenic call was “active; positive”.

And the mutagenic call [9]?
The mutagenic call was “inactive; negative. reevaluation of results: negative”.

And the mutagenic call (Test System: MOUSE LYMPHOMA, Strain/Indicator: L5178Y (TK+/TK-), Metabolic Activation: RAT, LIVER, S-9, AROCLOR 1254, Method: SUSPENSION/PLATE)?
The mutagenic call was “inactive; negative. reevaluation of results: equivocal”.

Which results are given for `CC1CO1` (stereo not drawn)?
mutagenic call (End Point: IN VITRO CHROMOSOMAL ABERRATIONS, Test System: CHL CELLS, Metabolic Activation: NONE): active; positive (structural changes); mutagenic call (End Point: IN VITRO CHROMOSOMAL ABERRATIONS, Test System: CHL CELLS, Metabolic Activation: RAT, LIVER, S-9, SODIUM PHENOBARBITAL AND 5,6-BENZOFLAVONE): active; positive (structural changes); mutagenic call (End Point: IN VITRO CHROMOSOMAL ABERRATIONS, Test System: CHO CELLS, Metabolic Activation: NONE): active; positive; weak response; mutagenic call (Test System: AMES SALMONELLA TYPHIMURIUM, Strain/Indicator: TA100, Metabolic Activation: HAMSTER, LIVER, S-9, AROCLOR 1254 (10%), Method: PREINCUBATION): active; positive; mutagenic call (Test System: AMES SALMONELLA TYPHIMURIUM, Strain/Indicator: TA100, Metabolic Activation: NONE, Method: FLASK VAPORIZATION): active; positive; mutagenic call (Test System: AMES SALMONELLA TYPHIMURIUM, Strain/Indicator: TA100, Metabolic Activation: NONE, Method: PREINCUBATION): active; positive; mutagenic call [3]: active; positive; mutagenic call (Test System: AMES SALMONELLA TYPHIMURIUM, Strain/Indicator: TA100, Metabolic Activation: NONE, Method: SUSPENSION/PLATE): active; positive; mutagenic call (Test System: AMES SALMONELLA TYPHIMURIUM, Strain/Indicator: TA100, Metabolic Activation: RAT, LIVER, S-9, AROCLOR 1254 (10%), Method: PREINCUBATION): active; positive; mutagenic call (Test System: AMES SALMONELLA TYPHIMURIUM, Strain/Indicator: TA100, Metabolic Activation: RAT, LIVER, S-9, AROCLOR 1254, Method: FLASK VAPORIZATION): active; positive; mutagenic call [4]: active; positive; mutagenic call (Test System: AMES SALMONELLA TYPHIMURIUM, Strain/Indicator: TA1535, Metabolic Activation: HAMSTER, LIVER, S-9, AROCLOR 1254 (10%), Method: PREINCUBATION): active; positive; mutagenic call (Test System: AMES SALMONELLA TYPHIMURIUM, Strain/Indicator: TA1535, Metabolic Activation: NONE, Method: FLASK VAPORIZATION): active; positive; mutagenic call (Test System: AMES SALMONELLA TYPHIMURIUM, Strain/Indicator: TA1535, Metabolic Activation: NONE, Method: PREINCUBATION): active; positive; mutagenic call [5]: active; positive; mutagenic call (Test System: AMES SALMONELLA TYPHIMURIUM, Strain/Indicator: TA1535, Metabolic Activation: NONE, Method: SUSPENSION/PLATE): active; positive; mutagenic call (Test System: AMES SALMONELLA TYPHIMURIUM, Strain/Indicator: TA1535, Metabolic Activation: RAT, LIVER, S-9, AROCLOR 1254 (10%), Method: PREINCUBATION): active; positive; mutagenic call (Test System: AMES SALMONELLA TYPHIMURIUM, Strain/Indicator: TA1535, Metabolic Activation: RAT, LIVER, S-9, AROCLOR 1254, Method: FLASK VAPORIZATION): active; positive; mutagenic call [6]: active; positive; mutagenic call (Test System: Ames Salmonella typhimurium, Strain/Indicator: YG7108, Metabolic Activation: None, Method: Standard plate): active; positive; mutagenic call [9]: active; positive
